Values quoted from earlier work as cited in US12214218B2, “Perfusion modulated tumor dose sculpting with single dose radiotherapy” (MEMORIAL SLOAN KETTERING CANCER CENTER, priority 2019, dated 2025).
Like-named read-outs stand apart in the source and are kept apart here.

## Cc1cc(C)c(/C=C2\C(=O)Nc3ccccc32)[nH]1 [Semaxanib/SU5416, Semaxanib]
In vivo
  average half-life: 0.5 to 1 h

## CNC(=O)c1ccccc1Sc1ccc2c(/C=C/c3ccccn3)n[nH]c2c1 [axitinib]
In vivo
  average half-life: 2.5 to 6 h

## COc1cc2c(Oc3ccc4[nH]c(C)cc4c3F)ncnc2cc1OCCCN1CCCC1 [cediranib]
Plasma half-life for cediranib
  average half-life: 22 to 27 h

## anginex
In vivo
  half-life: 0.833 h

B1: rhASM: Recombinant ASM manufactured for clinical use; orphan drug status for Type B NPD (protein, UniProt P17405 47-631, looked up)
Sphingomyelin …: LALSDSRVLWAPAEAHPLSPQGHPARLHRIVPRLRDVFGWGNLTCPICKGLFTAINLGLKKEPNVARVGSVAIKLCNLLKIAPPAVCQSIVHLFEDDMVEVWRRSVLSPSEACGLLLGSTCGHWDIFSSWNISLPTVPKPPPKPPSPPAPGAPVSRILFLTDLHWDHDYLEGTDPDCADPLCCRRGSGLPPASRPGAGYWGEYSKCDLPLRTLESLLSGLGPAGPFDMVYWTGDIPAHDVWHQTRQDQLRALTTVTALVRKFLGPVPVYPAVGNHESTPVNSFPPPFIEGNHSSRWLYEAMAKAWEPWLPAEALRTLRIGGFYALSPYPGLRLISLNMNFCSRENFWLLINSTDPAGQLQWLVGELQAAEDRGDKVHIIGHIPPGHCLKSWSWNYYRIVARYENTLAAQFFGHTHVDEFEVFYDEETLSRPLAVAFLAPSATTYIGLNPGYRVYQIDGNYSGSSHVVLDHETYILNLTQANIPGAIPHWQLLYRARETYGLPNTLPTAWHNLVYRMRGDMQLFQTFWFLYHKGHPPSEPCGTPCRLATLCAQLSARADSPALCRHLMPDGSLPEAQSLWPRPLFC
Wild type mice
  toxicity at high doses: non-toxic
